Measurements reported in US9221900B2, “Methods for identifying safe and functional humanized antibodies” (AC IMMUNE S.A., priority 2010, dated 2015).

How the values were obtained:
[1] = test system: Aβ1-42; assay: Aβ ELISA, binding to Aβ peptides and Aβ1-42 assembly states; parameters: species or system human; conditions: Aβ ELISA; human and murine Aβ1-42 and human Aβ1-40
Source text: FIG. 1 provides graphs and immunohistochemical images corresponding to the experiments described in Example 6.1 and 6.2. […] As a control, an anti-Aβ IgG monoclonal antibody with a N-terminal epitope was used. […] The mean (±SEM) of two assays is shown.
Murine anti-Aβ monoclonal antibodies were generated by immunizing mice with an Aβ peptide antigen using a liposomal vaccine formulation as previously described (Muhs et al., 2007). Several criteria were used to select candidate antibodies, including the ability to bind multiple Aβ species and to inhibit Aβ1-42 assembly into small cytotoxic peptide aggregates. A monoclonal murine mAb with an IgG2b backbone (mMABT) was selected for in vivo functionality studies using both single-transgenic murine mutant human APP and double-transgenic murine mutant human APP/PS1 models of Alzheimer's Disease. […] These ranged from monomeric and oligomeric Aβ1-42 fractions isolated by size-exclusion chromatography (SEC), mature Aβ1-42 fibers, to a more complex mixture of highly neurotoxic Aβ1-42 oligomer assemblies, ranging in size from dimers and trimers to higher molecular-weight multimers (see FIG. 8).

[2] = test system: amyloid plaques in human AD brain sections; assay: Immunohistochemistry of amyloid plaques in human AD brain sections; format: binding
Source text: Paraffin mounted temporal lobe brain sections (20 μm) from an AD patient and from an age-matched non-AD control (Tissue Solutions, Clydebank, UK) were used for immunohistochemistry staining. […] A goat-anti-human biotinylated IgG was used as a secondary antibody. Staining was done with diaminobenzidin (Dako, Glostrup, Denmark) and mounting using Eukitt mounting medium. Images were acquired on a LSM 700 inverted microscope from Zeiss.

[3] = biological target: Aβ1-42 binding to recombinant human ApoE4 (Homo sapiens, UniProt P05067); assay: ELISA of Aβ1-42 binding to recombinant human ApoE4; format: biochemical; conditions: saturating concentrations of ApoE4 and Aβ1-42
Source text: FIG. 9 provides a graph corresponding to the experiments described in Example 6.2. […] Percent inhibition of signal without an IgG monoclonal antibody is shown. […] The interaction site of ApoE4 with Aβ1-42 requires amino acids 18 to 28 (Strittmatter et al., 1993).

[4] = test system: mixed cortical cells from P1 rats; assay: Immunofluorescence of Aβ1-42 oligomer binding to neurons; format: cell-based, rat; conditions: co-treatment, 30 min to 18 h
Protocol: FIG. 3 provides graphs and immunocytochemical images corresponding to the experiments described in Example 6.4. Aβ1-42 oligomer binding to neurites was reduced by the anti-Aβ IgG4 monoclonal antibody. […] Green indicates staining with TuJ1, red indicates labeling with anti-Aβ (clone 6E10), and blue indicates staining with DAPI. […] Quantitative measures of fluorescence are shown for 30 min treatment and 18 h treatment (B). Mean results (±SEM) of two experiments are shown. […] Cortical cultures from P1 rats were treated as described for (A), except that Aβ1-42 tagged with HyLite Fluor-488 was used (C). Aβ1-42-labeled samples are shown in the upper panel and DAPI-stained samples are shown in the lower panel. One representative experiment is shown. Aβ1-42 fluorescence was quantified, with the mean (±SD) of the two independent experiments shown (D). […]
Aβ peptides, especially aggregation intermediates (Bateman et al., 2007), are known to associate with various lipids and proteins present in cell membranes. […] This effect was readily apparent as early as 30 min (FIGS. 3A and 3B) and remained for at least 18 h of treatment (FIG. 3B).
Cells were grown on a glass coverslips. […] Fluorescence intensity was measured in cell bodies delineated by saturated epifluorescence pictures. […]

[5] = test system: APP/PS1 mice; assay: In vivo two-photon imaging of amyloid plaques; parameters: species or system mouse; conditions: systemic dosing; tracked over multiple weeks
Protocol: FIG. 11 provides In vivo imaging of Aβ plaques in APP/PS1 mice treated with anti-beta amyloid antibody was performed. Systemic dosing of MABT modulates individual amyloid plaques in vivo. Amyloid plaques in APP/PS1 animals were labeled with Methoxy-X04 injected I.P., visualized by in vivo two-photon microscopy and tracked over multiple weeks (A). The relative change in plaque volume over time plotted as fold-increase from the initial imaging session (B).
Cranial windows were implanted above the somatosensory cortex of 10-month old APP hAPP(V717I)/PS1 mice, as previously described (Trachtenberg et al 2002, Holtmaat et al 2009), 2 weeks before the initial imaging session. Twenty-four hours prior to each imaging session animals were injected with 10 mg/kg Methoxy-X04 I.P. to visualize individual amyloid plaques (Klunk et al 2002) and immediately prior to imaging injected I.V. with AngioSense680 (VisEn Medical) to visualize blood vessels. For each imaging session animals were anesthetized with an isoflurane-oxygen mixture and mounted to the microscope using a head post. Images were collected via a two-photon laser scanning microscope (Ultima in vivo; Prairie Technologies) using a Ti:sapphire laser (MaiTai DeepSee; Spectra Physics) tuned to 820 nm delivering ˜30 mW to the back-focal plane of a 40× NA 0.8 objective lens (Olympus). […]

Aβ1-42 binding to recombinant human ApoE4, sequence (P05067 672-713 limits assumed): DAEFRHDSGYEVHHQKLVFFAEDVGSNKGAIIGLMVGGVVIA

## MABT: humanized anti-Aβ monoclonal antibody of IgG4 isotype, affinity matured and humanized form of mouse mMABT
[1]
  binding to different Aβ peptides: bound with high affinity
[2]
  binding to amyloid plaques: immunodecorated
[3]
  inhibition of the Aβ1-42 and ApoE4 interaction: over 80%
[4]
  interaction of Aβ1-42 oligomers with neurons: blocked the interaction of Aβ1-42 oligomers with neurons
[5]
  individual plaque volume: decreased in volume
